Results reported in PubChem BioAssay (NCI).
Where “and” joins values, the source holds several entries; their conditions need not be identical. Identical values can stand only once.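 Method: 48-hour compound exposure of cells in 96-well plates, five concentrations, linear interpolation of endpoints. Abbreviation: GI50, concentration required for 50% inhibition of growth. TGI is the concentration that stops growth completely.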

tested on: MDA-MB-468 breast; assay: inhibition of tumour cell growth, NCI panel, 48 h

Question: How did the GI50 turn out when `FC(F)(F)c1cc(NC2=NCCN=C(Nc3cc(C(F)(F)F)cc(C(F)(F)F)c3)SS2)cc(C(F)(F)F)c1` was run?
Answer: 2.07 µM

Question: And the TGI?
Answer: 7.45 µM

Question: With `C#CCOc1cccc(Nc2ncc3ncn(C4CCN(C(=O)CCl)C4)c3n2)c1` (stereo not drawn) as the compound, how does the GI50 read?
Answer: 19.7 µM

Question: What about the TGI of the same compound?
Answer: > 62.5 µM

Question: Which results are given for `CC(C)(F)C[C@H](N[C@@H](c1ccc(-c2ccc(S(C)(=O)=O)cc2)cc1)C(F)(F)F)C(=O)NC1(C#N)CC1`?
Answer: GI50: 54.4 µM and > 100 µM; TGI: 55 µM and > 100 µM

Question: What does the source list for `Cc1ccc2cnc(N)c(C#Cc3cncc(C(=O)Nc4ccc(CN5CCN(C)CC5)c(C(F)(F)F)c4)c3)c2c1`?
Answer: GI50: 0.662 µM; TGI: 1.47 µM

Question: What does the source list for `N#Cc1ncc(N2C(=O)C3(CCC3)N(c3ccc(OC4CCNCC4)nc3)C2=S)cc1C(F)(F)F`?
Answer: GI50: 9.8 µM; TGI: 24.6 µM

Question: For `c1cc2ccc1CNCCN1CCNCc3ccc(cc3)Oc3ccc(cc3)CNCCN(CCNCc3ccc(cc3)O2)CCNCc2ccc(cc2)Oc2ccc(cc2)CNCC1`, which GI50 is on record?
Answer: 0.673 µM

Question: And the TGI?
Answer: 2.09 µM

Question: How did the GI50 turn out when `COc1cc2c(cc1O)CC[C@@H]1C2CC[C@@]2(C)C1CC[C@@H]2O` (stereo partly drawn) was run?
Answer: 31.1 µM

Question: What about the TGI of the same compound?
Answer: > 100 µM

Question: How did the GI50 turn out when `O=C(Nc1ccc(-c2ccnc(Nc3ccc(N4CCOCC4)cc3)n2)cc1)C1CCCN1` (stereo not drawn) was run?
Answer: 10.2 µM

Question: And the TGI?
Answer: 26.3 µM

Question: Which results are given for `O=C(c1ccccc1)c1ccccc1C(=O)c1ccccc1`?
Answer: GI50: 28.7 µM; TGI: > 100 µM

Question: Which GI50 does the source give for `Cc1ccc(S(=O)(=O)c2ccsc2N)cc1` here?
Answer: 36.7 µM

Question: And the TGI?
Answer: > 100 µM

Question: Which results are given for `O=c1[nH]cnc2nc(-c3ccc(N(CCCl)CCCl)cc3)[nH]c12`?
Answer: GI50: > 100 µM; TGI: > 100 µM

Question: With `Brc1ccc2c(c1)c(-c1nc(-c3c[nH]c4ncccc34)cs1)cn2CCCN1CCCCC1` as the compound, how does the GI50 read?
Answer: 1.7 µM

Question: What about the TGI of the same compound?
Answer: 3.25 µM

Question: Which results are given for `C=C1C[C@@H]2[C@H](CC[C@]3(C)C(=O)CC[C@@H]23)[C@@]2(C)C=CC(=O)C=C12`?
Answer: GI50: 14.6 µM; TGI: 65.2 µM

Question: With `Cc1ccc(/C=C2\CN(Cc3cn(CCNc4ccnc5cc(Cl)ccc45)nn3)C/C(=C\c3ccc(C)cc3)C2=O)cc1` as the compound, how does the GI50 read?
Answer: 1.62 µM

Question: And the TGI?
Answer: 3.72 µM

Question: What does the source list for `O=C(O)c1ccc2cccnc2c1O`?
Answer: GI50: 1.41 µM; TGI: 6.5 µM

Question: What does the source list for `O[C@H](CN1CC1)[C@@H](O)CN1CC1`?
Answer: GI50: 0.389 µM; TGI: 2.65 µM

Question: For `CCC(=O)OC1=CN2C(=NC(c3ccc(N)cc3)=CC2c2cc(OC)c(OC)c(OC)c2)S1` (stereo not drawn), which GI50 is on record?
Answer: 2.1 µM

Question: What about the TGI of the same compound?
Answer: 6.32 µM

Question: How did the GI50 turn out when `NC(=S)N/N=C\c1nccc2c(C(F)(F)C(F)(F)C(F)(F)F)cccc12` was run?
Answer: 0.04 µM

Question: And the TGI?
Answer: 0.262 µM

Question: Which results are given for `Cc1[nH]n(-c2ccccc2)c(=O)c1C(=O)c1ccccc1`?
Answer: GI50: 17.5 µM; TGI: > 25 µM

Question: `CCN(CC)CCOc1nc2cc(OC)c(OC)cc2c2c1-c1ccc(OC)cc1C2=O` was tested. Which GI50 did it give?
Answer: 10.1 µM

Question: And the TGI?
Answer: 23.1 µM

Question: How did the GI50 turn out when `NS(=O)(=O)c1ccc(Nc2nc(N/N=C/c3ccccn3)nc(Nc3ccccc3)n2)cc1` was run?
Answer: 0.318 µM

Question: What about the TGI of the same compound?
Answer: 2.01 µM

Question: What does the source list for `Cc1cc(Cl)ccc1NC(=O)NC(C)(C)COC(=O)Nc1cccc(Cl)c1`?
Answer: GI50: 4.61 µM; TGI: 36 µM

Question: `CN1CCc2c(sc3ncnc(N/N=C/c4ccc(Cl)c(Cl)c4)c23)C1` was tested. Which GI50 did it give?
Answer: 10.9 µM

Question: What about the TGI of the same compound?
Answer: 25.8 µM

Question: With `CCCNc1cccc(-n2ncc3c(N/N=C/c4ccncc4)ncnc32)c1` as the compound, how does the GI50 read?
Answer: 0.768 µM

Question: And the TGI?
Answer: > 25 µM

Question: Which results are given for `COc1ccc(S(=O)(=O)n2c3ccccc3n3ncc(-c4nnc(C)o4)c23)cc1`?
Answer: GI50: 0.266 µM; TGI: 5.49 µM

Question: Which GI50 does the source give for `COc1cc(CNC(=O)CCSc2nc3ccccc3c(=O)n2Cc2cc(OC)c(OC)c(OC)c2)cc(OC)c1OC` here?
Answer: 2.35 µM

Question: And the TGI?
Answer: 9.67 µM

Question: How did the GI50 turn out when `C=C(C)[C@@H]1CC[C@]2(C)[C@H](CC=C3[C@@H]4[C@H](C)[C@@H](C)CC[C@]4(CO)CC[C@]32C)[C@@]1(C)CCCN` was run?
Answer: 0.819 µM

Question: What about the TGI of the same compound?
Answer: 1.66 µM

Question: `OC1CCN(CCCOc2c3ccccc3nc3c2oc2ccc(Cl)cc23)CC1` was tested. Which GI50 did it give?
Answer: 1.61 µM

Question: What about the TGI of the same compound?
Answer: 5.71 µM

Question: What does the source list for `C=C1C(=O)O[C@H]2[C@H]1CC/C(COC(=O)/C=C/c1c[nH]c3ccccc13)=C\CC[C@@]1(C)O[C@@H]21`?
Answer: GI50: 0.196 µM; TGI: 0.404 µM

Question: Which results are given for `CC1(C)N=C(N)N=C(N)N1c1ccc(OCCCCNC(=O)c2ccc(S(=O)(=O)F)cc2)c(Cl)c1`?
Answer: GI50: 18.4 µM; TGI: > 100 µM

Question: Which GI50 does the source give for `C[C@H]1CC2=CC(=O)CC[C@]2(C)[C@H]2CC[C@@]3(C)[C@@H](CC[C@]3(C)O)[C@H]12` here?
Answer: 33.9 µM

Question: What about the TGI of the same compound?
Answer: > 100 µM

Question: With `CC[C@H](C)[C@H](NC(=O)c1nccn1C)C(=O)N(C)[C@H](C[C@@H](OC(C)=O)c1nc(C(=O)N[C@@H](Cc2ccccc2)C[C@H](C)C(=O)OC)cs1)C(C)C` as the compound, how does the GI50 read?
Answer: 0.427 µM

Question: What about the TGI of the same compound?
Answer: > 33.3 µM

Question: For `O=S1(=O)CC(Br)C(Br)C1` (stereo not drawn), which GI50 is on record?
Answer: 1.39 µM

Question: What about the TGI of the same compound?
Answer: 3.82 µM

Question: How did the GI50 turn out when `O=C(Nc1cccc([N+](=O)[O-])c1)c1cc2ccccc2cc1O` was run?
Answer: 2.32 µM

Question: And the TGI?
Answer: 17.5 µM

Question: For `Cc1nc2sc(C(=O)Nc3cccc(Cl)c3C)c(N)c2cc1C(C)O` (stereo not drawn), which GI50 is on record?
Answer: 0.0712 µM

Question: And the TGI?
Answer: 4.44 µM

Question: What does the source list for `CS(=O)(=O)Nc1cc(-c2ccc3ncnc(Nc4cccc(Cl)c4F)c3c2)cnc1Cl`?
Answer: GI50: 1.28 µM; TGI: 3.44 µM

Question: Which results are given for `N#CC1CCc2c(c(-c3cn[nH]c3C(F)(F)F)nc3c(F)cc4[nH]ncc4c23)C1` (stereo not drawn)?
Answer: GI50: 2.19 µM; TGI: 6.23 µM

Question: With `Cn1c(O)c(N=NC(N)=S)c2ccccc21` as the compound, how does the GI50 read?
Answer: 20.4 µM

Question: And the TGI?
Answer: > 100 µM

Question: Which results are given for `O=c1oc2cc(OS(=O)(=O)c3ccccc3)ccc2c2c1CCCCC2`?
Answer: GI50: 2.85 µM; TGI: > 100 µM
